Data from ChEMBL document CHEMBL1126453, “Synthesis and anti-herpes activity of 5-trifluorovinyl-2-deoxyuridine” (1992).

Experiments:
[1] = Minimum antiviral concentration required to reduce virus-induced cytopathogenicity against Vaccinia virus in E6SM cells; assay type: functional
HEL [2] = assay: Minimum antiviral concentration required to reduce virus-induced cytopathogenicity against VZV (YS) in HEL cells; assay type: functional, Homo sapiens
HEL [3] = assay: Minimum antiviral concentration required to reduce virus-induced cytopathogenicity against VZV (OKA) in HEL cells; assay type: functional, Homo sapiens
HEL [4] = assay: Minimum antiviral concentration required to reduce virus-induced cytopathogenicity against TK' VZV (YS/R) in HEL cells; assay type: functional, Homo sapiens
[5] = Minimum antiviral concentration required to reduce virus-induced cytopathogenicity against HSV-2 (G) in E6SM cells; assay type: functional
[6] = Minimum antiviral concentration required to reduce virus-induced cytopathogenicity against TK' HSV-1 (VMW 1837) in E6SM cells; assay type: functional
[7] = Minimum cytotoxic concentration required to cause alteration of normal E6SM cell culture morphology; assay type: functional; conditions: read-out: Min cytotoxic concentration
[8] = Minimum antiviral concentration required to reduce virus-induced cytopathogenicity against HSV-1 (KOS) in E6SM cells; assay type: functional
[9] = Minimum antiviral concentration required to reduce virus-induced cytopathogenicity against TK' HSV-1 (B2006) in E6SM cells; assay type: functional
HEL [10] = assay: Minimum antiviral concentration required to reduce virus-induced cytopathogenicity against TK' VZV (07/1) in HEL cells; assay type: functional, Homo sapiens
HEL [11] = assay: Minimum cytotoxic concentration required to cause alteration of normal human […] (HEL) morphology in HEL cells; assay type: functional; conditions: read-out: Min cytotoxic concentration
HEL [12] = assay: Minimum cytotoxic concentration required to cause alteration of normal human […] (HEL) morphology; assay type: functional; conditions: read-out: Min cytotoxic concentration
[13] = Minimum antiviral concentration required to reduce virus-induced cytopathogenicity against TK-HSV-1 (B2006) in E6SM cells; assay type: functional
[14] = Minimum antiviral concentration required to reduce virus-induced cytopathogenicity against vaccinia virus in E6SM cells; assay type: functional

| Compound | Min antiviral concentration [1] | Min antiviral concentration (HEL [2]) | Min antiviral concentration (HEL [3]) | Min antiviral concentration (HEL [4]) | Min antiviral concentration [5] | Min antiviral concentration [6] | MCC [7] | Min antiviral concentration [8] | Min antiviral concentration [9] | Min antiviral concentration (HEL [10]) | MCC (HEL [11]) | MCC (HEL [12]) | Min antiviral concentration [13] | Min antiviral concentration [14] |
| --- | --- | --- | --- | --- | --- | --- | --- | --- | --- | --- | --- | --- | --- | --- |
| O=c1[nH]c(=O)n([C@H]2C[C@H](O)[C@@H](CO)O2)cc1/C=C/Br [BRIVUDINE] | 0.3 µg/mL | 0.004 µg/mL | 0.002 µg/mL | >10 µg/mL | 100 µg/mL | 40 µg/mL | 200 µg/mL | 0.02 µg/mL | 100 µg/mL | >10 µg/mL | 200 µg/mL |  |  |  |
| O=c1[nH]c(=O)n([C@H]2C[C@H](O)[C@@H](CO)O2)cc1C(F)=C(F)F |  | 0.55 µg/mL | 0.16 µg/mL | 11.6 µg/mL | 13 µg/mL | 1.5 µg/mL | 100 µg/mL | 0.05 µg/mL |  | 13.6 µg/mL |  | 10 µg/mL | 13 µg/mL | 8 µg/mL |
